The numbers were not newly measured in paper PMC10949855 (Journal of veterinary pharmacology and therapeutics, 2022), which cites them from elsewhere.

The conditions of this data set: oral, dogs; ref KuKanich & KuKanich 2015; Matsui et al 1995; cited from earlier work.
Regarding `O=C(N[C@H](CO)[C@H](O)c1ccc([N+](=O)[O-])cc1)C(Cl)Cl` [chloramphenicol], the TMAX is 1.3 h.

For the compound `CN/C(=N/CCSCc1nc[nH]c1C)NC#N` [cimetidine], the TMAX was 1.8 h.

Regarding `CN(C)CCCC1(c2ccc(F)cc2)OCc2cc(C#N)ccc21` (stereo not shown) [citalopram], the TMAX was 1 h.

In the case of `CC(=O)N1CCN(c2ccc(OCC3COC(Cn4ccnc4)(c4ccc(Cl)cc4Cl)O3)cc2)CC1` (stereo not shown) [ketoconazole], the TMAX is 2 h.
